This test relates to MCF7 human breast cancer cell line. In words: MTT assay of MCF7 cells. The class given is cell-based. Particulars: media containing 1% fetal bovine serum. Here is the method: MDA-MB-231 and MCF7 cells were plated at a density of 8×10^3 cells/well and 10^4 cells/well in 96-well culture plates, respectively. The compounds were fed in serum free media containing 5% and 1% fetal bovine serum for MDA-MB-231 and MCF7 cells, respectively.
On the technique in general: Tetrazolium assays rely on reduction of a dye to a coloured formazan, in cell work by metabolically active cells.

This note sets out measurements from US9115145B2, “Tocotrienol derivatives and associated methods” (FIRST TECH INTERNATIONAL LIMITED, priority 2011, dated 2015).

The term IC50 denotes the concentration that inhibits the measured activity by half. High values mean weaker potency, low ones greater potency.

In turn, `CC(C)=CCC/C(C)=C/CC/C(C)=C/CC[C@]1(C)CCc2cc(O)c(C)c(C)c2O1` [Compound 1, γ-tocotrienol, reference compound] came in with an IC50 of 7.1 µM.
